This note sets out measurements from article PMC3914206.

The structures appear in SMILES notation.

Format in all cases: binding
Assay [1] deals with T1, panel of 442 kinases (Homo sapiens, UniProt P57078).
T1 construct: purchased KINOMEscan
T1 sequence (P57078 1-832): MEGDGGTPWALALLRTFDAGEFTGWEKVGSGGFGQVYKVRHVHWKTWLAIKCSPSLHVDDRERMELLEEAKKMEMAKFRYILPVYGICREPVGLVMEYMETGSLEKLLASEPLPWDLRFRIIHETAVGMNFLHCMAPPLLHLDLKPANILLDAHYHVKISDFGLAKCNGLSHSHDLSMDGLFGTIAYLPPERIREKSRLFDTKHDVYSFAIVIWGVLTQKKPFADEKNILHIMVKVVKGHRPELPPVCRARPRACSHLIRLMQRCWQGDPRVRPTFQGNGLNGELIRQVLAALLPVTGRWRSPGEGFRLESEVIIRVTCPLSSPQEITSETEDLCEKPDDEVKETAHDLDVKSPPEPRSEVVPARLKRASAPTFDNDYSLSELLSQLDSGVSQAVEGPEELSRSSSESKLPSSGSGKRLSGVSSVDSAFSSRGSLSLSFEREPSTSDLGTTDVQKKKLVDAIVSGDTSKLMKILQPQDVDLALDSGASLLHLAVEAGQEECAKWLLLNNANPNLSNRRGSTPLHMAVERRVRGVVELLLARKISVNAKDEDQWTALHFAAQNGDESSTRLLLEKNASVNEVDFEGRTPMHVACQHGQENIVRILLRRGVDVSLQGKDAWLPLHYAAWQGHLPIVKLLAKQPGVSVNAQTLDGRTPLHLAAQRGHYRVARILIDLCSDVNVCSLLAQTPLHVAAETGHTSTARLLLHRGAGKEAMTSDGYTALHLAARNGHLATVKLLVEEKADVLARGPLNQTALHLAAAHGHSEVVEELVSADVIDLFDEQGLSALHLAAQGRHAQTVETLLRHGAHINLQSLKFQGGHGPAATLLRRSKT
The conditions noted are these: Compound Concentration 10 µM. From the text: (§1) We assessed the selectivity of members of this scaffold using the KINOMEscan methodology across a near comprehensive panel of 442 kinases [[18,27]].

For assay [2], the target named is T2, panel of 442 kinases (Homo sapiens, UniProt Q15746).
T2 construct: purchased KINOMEscan
The conditions noted are these: Compound Concentration 10 µM.
Text: as §1

For assay [3], the target named is T3, panel of 442 kinases (Homo sapiens, UniProt O75716).
T3 construct: purchased KINOMEscan
Conditions: kinase STK16; compound concentration 10 µM.
Text: as §1

T2 sequence (Q15746 whole entry): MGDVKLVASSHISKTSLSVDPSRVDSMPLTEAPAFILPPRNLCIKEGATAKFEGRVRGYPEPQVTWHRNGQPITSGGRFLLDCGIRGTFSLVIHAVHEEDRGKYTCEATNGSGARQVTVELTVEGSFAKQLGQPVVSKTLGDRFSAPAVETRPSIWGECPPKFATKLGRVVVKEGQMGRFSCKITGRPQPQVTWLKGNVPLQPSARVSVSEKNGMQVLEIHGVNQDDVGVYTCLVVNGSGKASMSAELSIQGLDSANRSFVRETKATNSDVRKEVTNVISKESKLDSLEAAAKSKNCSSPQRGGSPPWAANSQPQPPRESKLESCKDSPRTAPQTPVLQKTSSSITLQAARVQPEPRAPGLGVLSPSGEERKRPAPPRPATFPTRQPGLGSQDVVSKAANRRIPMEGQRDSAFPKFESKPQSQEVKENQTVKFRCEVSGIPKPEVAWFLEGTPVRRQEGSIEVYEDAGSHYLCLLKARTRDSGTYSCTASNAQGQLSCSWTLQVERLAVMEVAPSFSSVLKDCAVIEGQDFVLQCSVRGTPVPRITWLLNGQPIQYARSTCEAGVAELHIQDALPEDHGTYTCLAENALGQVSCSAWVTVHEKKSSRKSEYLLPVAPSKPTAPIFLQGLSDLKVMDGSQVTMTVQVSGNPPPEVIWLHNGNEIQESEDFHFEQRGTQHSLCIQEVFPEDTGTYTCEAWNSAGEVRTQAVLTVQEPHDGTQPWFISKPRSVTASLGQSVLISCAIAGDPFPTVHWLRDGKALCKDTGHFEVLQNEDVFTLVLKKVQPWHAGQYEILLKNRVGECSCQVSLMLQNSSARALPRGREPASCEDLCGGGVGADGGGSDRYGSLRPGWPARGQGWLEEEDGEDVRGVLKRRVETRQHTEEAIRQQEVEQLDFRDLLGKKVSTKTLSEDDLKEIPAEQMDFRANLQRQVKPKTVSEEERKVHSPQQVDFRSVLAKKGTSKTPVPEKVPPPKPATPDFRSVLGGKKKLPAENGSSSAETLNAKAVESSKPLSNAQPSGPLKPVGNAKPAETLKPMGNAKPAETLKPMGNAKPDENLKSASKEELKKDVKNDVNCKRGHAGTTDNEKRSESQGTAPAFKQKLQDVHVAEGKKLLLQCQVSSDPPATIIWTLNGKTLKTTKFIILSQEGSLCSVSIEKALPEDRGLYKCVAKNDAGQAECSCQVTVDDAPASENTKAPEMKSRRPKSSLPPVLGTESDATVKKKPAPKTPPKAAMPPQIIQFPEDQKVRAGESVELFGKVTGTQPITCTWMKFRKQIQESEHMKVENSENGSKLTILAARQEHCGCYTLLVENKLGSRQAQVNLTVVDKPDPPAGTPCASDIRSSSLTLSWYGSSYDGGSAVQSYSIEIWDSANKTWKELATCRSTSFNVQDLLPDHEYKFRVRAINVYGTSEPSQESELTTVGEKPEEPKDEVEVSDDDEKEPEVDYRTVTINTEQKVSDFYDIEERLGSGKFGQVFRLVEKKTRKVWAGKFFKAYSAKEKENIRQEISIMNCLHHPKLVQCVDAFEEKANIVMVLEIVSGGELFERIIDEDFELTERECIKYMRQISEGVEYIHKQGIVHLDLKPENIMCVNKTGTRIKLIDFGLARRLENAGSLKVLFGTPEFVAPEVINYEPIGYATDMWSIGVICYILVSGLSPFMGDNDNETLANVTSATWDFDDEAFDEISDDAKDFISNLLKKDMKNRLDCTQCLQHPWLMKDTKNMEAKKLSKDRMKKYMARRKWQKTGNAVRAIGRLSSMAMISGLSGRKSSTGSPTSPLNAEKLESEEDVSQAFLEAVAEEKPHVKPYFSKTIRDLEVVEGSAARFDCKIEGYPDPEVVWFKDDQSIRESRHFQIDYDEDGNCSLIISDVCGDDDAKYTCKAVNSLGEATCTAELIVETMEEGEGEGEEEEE
T3 sequence (O75716 whole entry): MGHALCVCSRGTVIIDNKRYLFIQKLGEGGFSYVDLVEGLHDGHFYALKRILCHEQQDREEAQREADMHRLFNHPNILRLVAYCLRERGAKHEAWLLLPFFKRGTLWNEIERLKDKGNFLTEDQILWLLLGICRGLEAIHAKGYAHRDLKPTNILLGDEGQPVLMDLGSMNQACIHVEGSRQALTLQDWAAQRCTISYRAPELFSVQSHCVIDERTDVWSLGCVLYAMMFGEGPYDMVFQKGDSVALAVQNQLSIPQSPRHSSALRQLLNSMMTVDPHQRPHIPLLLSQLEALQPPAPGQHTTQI

In the case of `COc1cc(C(=O)N2CCC(N3CCN(C)CC3)CC2)ccc1Nc1ncc2c(n1)N(C1CCCC1)c1ccccc1C(=O)N2C` [Compound 25, 11-cyclopentyl-2-((2-methoxy-4-(4-(4-methylpiperazin-1-yl)piperidine-1-carbonyl)phenyl)amino)-5-methyl-5H-benzo[e]pyrimido[5,4-b][1,4]diazepin-6(11H)-one], the “KINOMEscan: RIPK4” value on panel of 442 kinases [1] came to 100. Besides, the “KINOMEscan: MYLK” value on panel of 442 kinases [2] was found to be 73. Also, on panel of 442 kinases [3], the “% Ctrl, STK16” value came to 75 % Ctrl.

Turning to `COc1cc(C(=O)N2CCC(N3CCN(C)CC3)CC2)ccc1Nc1ncc2c(n1)N1CCc3cccc(c31)C(=O)N2C` [Compound 24], on panel of 442 kinases [2], the “KINOMEscan: MYLK” value was 2.9. At panel of 442 kinases [3], the “% Ctrl, STK16” value worked out at 50 % Ctrl.

On to `COc1cc(C(=O)N2CCC(N3CCN(C)CC3)CC2)ccc1Nc1ncc2c(n1)N(C)c1ccccc1C(=O)N2C` [15 (LRRK2-IN-1)], for which, on panel of 442 kinases [1], the “KINOMEscan: RIPK4” value is 74. The “KINOMEscan: MYLK” value on panel of 442 kinases [2] was determined as 8.7. The “% Ctrl, STK16” value on panel of 442 kinases [3] came to 62 % Ctrl.

Consider `CCOc1cc(C(=O)N2CCC(N3CCN(C)CC3)CC2)ccc1Nc1ncc2c(n1)N(C1CCCC1)c1ccccc1C(=O)N2C` [Compound 26], for which the “KINOMEscan: RIPK4” value on panel of 442 kinases [1] is on record as 100. In addition, the “KINOMEscan: MYLK” value at panel of 442 kinases [2] worked out at 98. Further, the “% Ctrl, STK16” value at panel of 442 kinases [3] came out at 99 % Ctrl.
